According to article PMC12172621 (ACS chemical neuroscience, 2024):
Where “and” joins values, the source holds several entries; their conditions need not be identical. Equal values may be shown once. Read-outs that look alike come from different tables or passages of the source.

Legend:
in vitro = conditions: mouse
[1] = biological target: sigma-2 receptor (σ2R, Tmem97) (Homo sapiens, UniProt Q5BJF2); assay: biochemical; format: binding
[2] = test system: seeding activity of RML prions on recombinant bank vole PrP; format: biochemical; conditions: 2× the EC50 (79 μM)
[3] = test system: PK-resistant PrP in Rosa26-targeted ScN2a cells; format: cell-based, mouse
[4] = test system: PK-resistant PrP in Hrh1^0/0 cells
[5] = biological target: sigma-1 receptor (σ1R, Sigmar1) (Homo sapiens, UniProt Q99720); assay: biochemical; format: binding
sigma-1 receptor (σ1R, Sigmar1), sequence (Q99720 whole entry, species assumed): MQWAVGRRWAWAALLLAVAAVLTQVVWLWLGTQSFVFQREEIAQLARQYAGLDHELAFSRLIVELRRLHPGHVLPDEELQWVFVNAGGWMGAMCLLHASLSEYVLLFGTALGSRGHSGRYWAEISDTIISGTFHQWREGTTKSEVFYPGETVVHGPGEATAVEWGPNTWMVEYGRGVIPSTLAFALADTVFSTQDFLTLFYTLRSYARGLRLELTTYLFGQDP

[6] = cited from earlier work
[7] = test system: PK-resistant PrP in Sigmar1 + Tmem97 KO cells; format: cell-based, mouse
[8] = test system: total PrP (PrP^C) in uninfected N2a cells; format: cell-based, mouse
[9] = test system: PK-resistant PrP (PrP^Sc) in ScN2a-RML cells; format: cell-based, mouse; conditions: read-out: EC50, effective concentration for 50% reduction of PrP^Sc levels in ScN2a-RML cells
[10] = test system: cultured hippocampal neurons exposed to purified RML PrP^Sc; format: cell-based
[11] = test system: PK-resistant PrP in N2a cells chronically infected with 22L prions; format: cell-based, mouse

sigma-2 receptor (σ2R, Tmem97), sequence (Q5BJF2 whole entry, species assumed): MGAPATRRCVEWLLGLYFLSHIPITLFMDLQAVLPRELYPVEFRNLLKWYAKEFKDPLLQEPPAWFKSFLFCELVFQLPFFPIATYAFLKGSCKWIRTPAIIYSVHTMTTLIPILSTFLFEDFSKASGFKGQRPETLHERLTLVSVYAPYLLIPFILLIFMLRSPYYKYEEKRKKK

## CC(C)=CCN1CC[C@]2(C)c3cc(O)ccc3C[C@H]1[C@H]2C [(+)-pentazocine]
In vitro
  CC50: > 50 µM

## CN(C)CC1CCOC1(c1ccccc1)c1ccccc1 (stereo not drawn) [ANAVEX2–73, Blarcamesine]
[1]
  Ki: 2.03 µM
[2]
  Lag phase in RT-QuIC: slight increase in the lag phase
[3]
  Levels of PK-resistant PrP relative to DMSO-treated controls: 70.4 ± 1.1% and 42.6 ± 1.7%
[4]
  Levels of PK-resistant PrP relative to DMSO-treated controls: 25.7 ± 6.2%
ScN2a-RML cells; mouse
  TI, therapeutic index (LC50/EC50): >1.3
[5]
  Ki: 0.442 µM
  Selectivity for σ1R (σ1R/σ2R): σ1R (4.5 x)
[6]; Alzheimer’s and Parkinson’s diseases
  Tolerability in phase II trials: well tolerated
In vitro
  CC50: > 50 µM
[7]; 39.5 μM
  Levels of PK-resistant PrP relative to DMSO-treated controls: 57.9 ± 9.0%

## CN(C)CCN(C)CCc1ccc(Cl)c(Cl)c1 [BD1047]
[1]; read-out: Kiσ2R
  Ki: 0.013 µM
[8]; 19 μM
  Levels of total PrP compared to DMSO treatment: 94.9 ± 0.9%
ScN2a-RML cells
  CC50: > 25 µM
[9]
  EC50: 19 µM
[10]
  Mean number of dendritic spines/μm: 0.74 ± 0.02 spines/μm and 0.78 ± 0.04 spines/μm
  [SRA]min, minimum concentration capable of preventing hippocampal spine retraction: 0.5 µM

## CN1CCN(CCc2ccc(Cl)c(Cl)c2)CC1 [BD1063]
[1]; read-out: Kiσ2R
  Ki: 0.123 µM
[8]; 12.3 μM
  Levels of total PrP compared to DMSO treatment: 85.8 ± 4.4%
[11]
  Levels of PK-resistant PrP relative to DMSO treatment: 63.3 ± 1.2%
[4]
  Levels of PK-resistant PrP relative to DMSO-treated controls: 42.6 ± 6.7%
ScN2a-RML cells
  CC50: > 50 µM
  TI, therapeutic index (LC50/EC50): >4.1
[5]
  Selectivity for σ1R (σ1R/σ2R): σ1R (45.7 x)
[5]; read-out: Kiσ1R
  Ki: 0.0027 µM
[9]
  EC50: 12.3 µM
[10]
  Mean number of dendritic spines/μm: 0.69 ± 0.03 spines/μm and 0.63 ± 0.03 spines/μm
  [SRA]min, minimum concentration capable of preventing hippocampal spine retraction: 1 µM
[7]
  Levels of PK-resistant PrP relative to DMSO-treated controls: 60.3 ± 4.0%

## OC(CCCN1CCN(c2ncc(F)cn2)CC1)c1ccc(F)cc1 (stereo not drawn) [BMY-14802]
In vitro
  CC50: > 50 µM

## Cc1ccccc1NC(=N)Nc1ccccc1C [DTG, ditolylguanidine]
In vitro
  CC50: > 50 µM

## COc1cccc2c1CCCC2CCCN1CCN(C2CCCCC2)CC1 (stereo not drawn) [PB-28]
[8]
  Levels of total PrP compared to DMSO treatment: 85.3 ± 3.4%
ScN2a-RML cells
  CC50: 7.8 µM
[9]
  EC50: 5.1 µM
[10]
  [SRA]min, minimum concentration capable of preventing hippocampal spine retraction: 0.1 µM

## CCCN1CCC=C(c2cc(-c3ccc(C)cc3)no2)C1 [PD 144418]
[1]; read-out: Kiσ2R
  Ki: 0.351 µM
[8]
  Levels of total PrP compared to DMSO treatment: 97.5 ± 4.8%
[11]; read-out: EC50 against 22L prions
  EC50: 12.6 µM
[3]
  Levels of PK-resistant PrP relative to DMSO-treated controls: 81.1 ± 5.0%
ScN2a-RML cells
  CC50: > 22 µM
  TI, therapeutic index (LC50/EC50): >4.2
[5]
  Selectivity for σ1R (σ1R/σ2R): σ1R (319.1 x)
[5]; read-out: Kiσ1R
  Ki: 0.0011 µM
[9]
  EC50: 5.2 µM
[10]
  [SRA]min, minimum concentration capable of preventing hippocampal spine retraction: 10 µM
[7]
  Levels of PK-resistant PrP relative to DMSO-treated controls: 56.6 ± 5.8%

## COc1ccc(CCN2CCN(CCCc3ccccc3)CC2)cc1OC [SA 4503, Cutamesine]
[1]; read-out: Kiσ2R
  Ki: 0.0175 µM
ScN2a-RML cells
  CC50: > 50 µM
[6]; ischemic stroke
  Tolerability in phase II trial: well tolerated
[9]
  EC50: 27.2 µM

## CCCCc1oc2ccccc2c1C(=O)c1cc(I)c(OCCN(CC)CC)c(I)c1 [amiodarone]
[1]
  Ki: 0.171 µM

## O=C(CCCN1CCC(O)(c2ccc(Cl)cc2)CC1)c1ccc(F)cc1 [haloperidol]
[8]
  Levels of total PrP compared to DMSO treatment: 92.0 ± 3.5%
[10]
  Mean number of dendritic spines/μm: 0.85 ± 0.03 spines/μm and 0.73 ± 0.04 spines/μm

## C[C@@H]1CN(CCCn2c3ccccc3c3ccccc32)C[C@H](C)N1 [rimcazole]
[1]
  Ki: 0.0496 µM
[10]
  Mean number of dendritic spines/μm: 0.86 ± 0.02 spines/μm and 0.82 ± 0.02 spines/μm
  [SRA]min, minimum concentration capable of preventing hippocampal spine retraction: 0.5 µM
In vitro
  CC50: 10 µM
